# Results: PMC3859497, “Expression and Biological Activity of the Cystine Knot Bioinsecticide PA1b (Pea Albumin 1 Subunit b)” (PLoS ONE, 2013)
# No end group written: not given here.
# What was measured:
# [1] = tested on: Sitophilus oryzae PA1b resistant strain ISOR3; test: Toxicity assay on weevils, PA1b resistant strain ISOR3; assay type: in vivo; conditions: adult S. oryzae, PA1b resistant strain ISOR3, food pellets incorporating peptide at 400 µg.g−1
# Method: (§1) Rice weevils (Sitophilus oryzae, Coleoptera) were reared on wheat seeds at 27.5°C and 70% RH. Tests and survival analysis were performed on adults feeding on food pellets (composed of wheat flour and water) incorporating PA1b (extracted from pea seeds for control tests or produced in tobacco) at 400 µg.g^−1, as described in detail in [10]. LT50 values were calculated using the SIMFIT software (http://www.simfit.man.ac.uk). The PA1b resistant strain, ISOR3, was reared in an identical way except that the weevils were fed on pea seeds rather than on wheat seeds.
# [2] = tested on: Sf9 insect cells; test: Viability assay on Sf9 insect cells; assay type: cell-based, Spodoptera frugiperda; conditions: Sf9 cell viability assay, nM (SEM), HPLC purified tobacco-expressed isoforms
# Method: Spodoptera frugiperda Sf9 cells were grown and used for viability assays, according to [23].
# [3] = tested on: Sitophilus oryzae sensitive weevil strain WAA42; test: Toxicity assay on weevils, sensitive strain WAA42 (survival analysis on food pellets); assay type: in vivo; conditions: adult S. oryzae, sensitive strain WAA42, fed food pellets (wheat flour and water) incorporating peptide at 400 µg.g−1, days +/− SEM, LT50 calculated with SIMFIT
# Method: as §1
Substance,TL50 ISOR3 (mortality on resistant strain) [1],CL50 Sf9 [2],TL50 WAA42 [3],TL50 WAA42 ([3]; listed as 4),TL50 WAA42 ([3]; listed as isoform 4) [days],CL50 Sf9 ([2]; listed as 3) [nM],CL50 Sf9 ([2]; listed as isoform 3),TL50 WAA42 ([3]; listed as 3),TL50 WAA42 ([3]; listed as isoform 3)
"ASCNGVCSPFEMPPCGTSACRCIPVGLFIGYCRNPSG (also: bicyclic or more (positions not given here)) [Isoform 2.2, pea PA1b isoform 2 (GenBank AJ574794), non-oxidized Met form, expressed in tobacco]",no mortality,53 (16) nM,8.9+−0.6 days,–,–,–,–,–,–
"ASCNGVCSPFEMoxPPCGSSACRCIPVGLLIGYCRNPSG (bicyclic or more) [Isoform 1, pea PA1b isoform (GenBank AJ574795) expressed in N. benthamiana with the PA1-cassette]",no mortality,82 (24) nM,9.2+−0.9 days,–,–,–,–,–,–
"ASCNGVCSPFEMoxPPCGSSACRCIPVGLVVGYCRHPSG (bicyclic or more) [Isoform 4, pea PA1b isoform (GenBank M13790 and AJ276882) expressed in tobacco]",no mortality,269 ± 50 nM,–,12.9+−1.1 days,12.9 ± 1.1,–,–,–,–
"ASCNGVCSPFEMoxPPCGTSACRCIPVGLFIGYCRNPSG (bicyclic or more) [Isoform 2.1, pea PA1b isoform 2 (GenBank AJ574794), oxidized Met form, expressed in tobacco]",no mortality,82 (36) nM,9.5+−0.7 days,–,–,–,–,–,–
"ASCNGVCSPFEMoxPPCGTSACRCIPVGLVIGYCRNPSG (bicyclic or more) [Isoform 6, pea PA1b isoform (GenBank AJ574793) expressed in tobacco]",no mortality,96 (22) nM,8.9+−0.7 days,–,–,–,–,–,–
"ASCNGVCSPFEMoxPPCGTSACRCIPVGLVVGYCRNPSG (bicyclic or more) [Isoform 5, pea PA1b isoform (GenBank M13709) expressed in tobacco]",no mortality,99 (31) nM,9.35+−0.7 days,–,–,–,–,–,–
"ISCNGVCSPFDIPPCGSPLCRCIPAGLVIGNCRNPY G (bicyclic or more) [Isoform 3, pea PA1b isoform (GenBank AJ574796) expressed in tobacco]",no mortality,–,–,–,–,>1500,completely inactive,no mortality,completely inactive
